Laboratory results from PubChem BioAssay (NCI).
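A five-concentration, 48-hour dose response in 96-well plates underlies each endpoint, interpolated linearly between surrounding concentrations. GI50 is the concentration that inhibits growth by half. TGI denotes the concentration required for complete inhibition of growth.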

Experiments:
Assay in all cases: NCI anticancer screen, dose series, 48 h
[1] = test system: CCRF-CEM leukemia
[2] = test system: DLD-1 colon
[3] = test system: DMS 273 small cell lung
[4] = test system: KM20L2 colon
[5] = test system: LXFL 529 NSCLC
[6] = test system: SNB-75 CNS
[7] = test system: SNB-78 CNS
[8] = test system: SR leukemia
[9] = test system: U251 CNS
[10] = test system: XF 498 CNS
[11] = test system: HOP-18 NSCLC
[12] = test system: BT-549 breast
[13] = test system: DU-145 prostate

SMILES: S=C=NCCc1ccccc1
- TGI [1]: 4.25 µM
- TGI [2]: 0.324 µM
- TGI [3]: 1.1 µM
- TGI [4]: 6.68 µM
- TGI [5]: 0.774 µM
- TGI [6]: 11.8 µM
- TGI [7]: 5.78 µM
- TGI [8]: 86.9 µM
- TGI [9]: 2.22 µM
- TGI [10]: 5.35 µM

SMILES: COC(=O)/C=c1\s/c(=C\C(=O)OC)c2ccccc12
- TGI [1]: > 100 µM
- TGI [2]: > 100 µM
- TGI [3]: > 100 µM
- TGI [11]: > 100 µM
- TGI [4]: > 100 µM
- TGI [5]: > 100 µM
- TGI [6]: > 100 µM
- TGI [7]: > 100 µM
- TGI [9]: > 100 µM

SMILES: C#CCN(C(=O)C(F)(F)F)c1ccc(C(=O)c2ccc(N(CC#C)C(=O)C(F)(F)F)cc2)cc1
- TGI [1]: > 100 µM
- TGI [2]: > 100 µM
- TGI [3]: 63.9 µM
- TGI [4]: > 100 µM
- TGI [5]: > 100 µM
- TGI [6]: > 100 µM
- TGI [7]: > 100 µM
- TGI [9]: > 100 µM

SMILES: C/C=C/COC(=O)CO[N+](=O)[O-]
- TGI [1]: > 100 µM
- TGI [2]: > 100 µM
- TGI [3]: > 100 µM
- TGI [4]: > 100 µM
- TGI [5]: > 100 µM
- TGI [6]: > 100 µM
- TGI [8]: > 100 µM
- TGI [9]: > 100 µM
- TGI [10]: > 100 µM

SMILES: CCN(CC)CCn1[nH]c2c3ccc(=O)cc3sc3c(NCCN)ccc1c32
- TGI [1]: 0.719 µM
- TGI [2]: 10.1 µM
- TGI [11]: 13.6 µM
- TGI [5]: 1.77 µM
- TGI [6]: 3.61 µM
- TGI [7]: 4.49 µM
- TGI [8]: 1.71 µM
- TGI [9]: 5.18 µM
- TGI [10]: 0.974 µM

SMILES: Cc1nc2sccn2c1C(=O)NC(=O)Nc1ccc(Cl)cc1
- TGI [1]: > 100 µM
- TGI [2]: > 100 µM
- TGI [3]: > 100 µM
- TGI [4]: > 100 µM
- TGI [5]: > 100 µM
- TGI [6]: 50.8 µM
- TGI [7]: > 100 µM
- TGI [9]: > 100 µM
- TGI [10]: 69.2 µM

SMILES: CCOC(=O)/C(=C/c1ccc(N(CCC#N)CCC#N)cc1C)NC(=O)/C=C/c1ccccc1
- TGI [1]: > 100 µM
- TGI [2]: > 100 µM
- TGI [3]: > 100 µM
- TGI [4]: > 100 µM
- TGI [5]: > 100 µM
- TGI [6]: > 100 µM
- TGI [7]: > 100 µM
- TGI [9]: > 100 µM
- TGI [10]: > 100 µM

SMILES: CC[N+](C)(CC)CC(C)(C)C(=O)/C=C/c1ccc(/C=C/C(=O)C(C)(C)C[N+](C)(CC)CC)cc1
- TGI [1]: > 100 µM
- TGI [2]: > 100 µM
- TGI [3]: > 100 µM
- TGI [4]: > 100 µM
- TGI [5]: > 100 µM
- TGI [6]: > 100 µM
- TGI [7]: > 100 µM
- TGI [9]: > 100 µM

SMILES: O=C(CCc1nnc2s/c(=C\c3ccccc3Cl)c(=O)n12)Nc1cc(Cl)ccc1Cl
- TGI [1]: > 100 µM
- TGI [2]: > 100 µM
- TGI [11]: > 100 µM
- TGI [5]: > 100 µM
- TGI [7]: > 100 µM
- TGI [8]: > 100 µM
- TGI [9]: > 100 µM
- TGI [10]: > 100 µM

SMILES: CN(C)CCNC(=O)c1cccc2ccc(-c3ccc(-c4ccccc4)cc3)nc12
- TGI [1]: 11.5 µM
- TGI [2]: 8.64 µM
- TGI [3]: 3.24 µM
- TGI [11]: 26.4 µM
- TGI [4]: 4.67 µM
- TGI [5]: 3.39 µM
- TGI [6]: 6.11 µM
- TGI [7]: 28.3 µM
- TGI [8]: 4.64 µM
- TGI [9]: 4.65 µM

SMILES: CC(=O)NNc1nc(C)c(C(=O)NNC(=O)C(=O)Nc2ccc([N+](=O)[O-])cc2C#N)s1
- TGI [1]: > 100 µM
- TGI [3]: > 100 µM
- TGI [4]: > 100 µM
- TGI [5]: > 100 µM
- TGI [7]: > 100 µM
- TGI [8]: > 100 µM
- TGI [9]: > 100 µM
- TGI [10]: > 100 µM

SMILES: Cc1cc(=O)[nH]c(CNC(=O)c2cccc(C(=O)NCc3cc(=O)[nH]c(C)n3)c2)n1
- TGI [1]: > 100 µM
- TGI [2]: > 100 µM
- TGI [3]: > 100 µM
- TGI [11]: > 100 µM
- TGI [4]: > 100 µM
- TGI [5]: > 100 µM
- TGI [6]: > 100 µM
- TGI [7]: > 100 µM
- TGI [9]: > 100 µM

SMILES: Cn1c(=O)c2[nH]cnc2n(CC(N)=O)c1=O
- TGI [1]: > 100 µM
- TGI [2]: > 100 µM
- TGI [3]: > 100 µM
- TGI [5]: > 100 µM
- TGI [6]: > 100 µM
- TGI [7]: > 100 µM
- TGI [8]: > 100 µM
- TGI [9]: > 100 µM
- TGI [10]: > 100 µM

SMILES: c1ccc(P(=C2c3ccccc3-c3ccccc32)(c2ccccc2)c2ccccc2)cc1
- TGI [1]: 8.34 µM
- TGI [2]: 65.5 µM
- TGI [3]: 19.2 µM
- TGI [11]: 80 µM
- TGI [4]: 8.21 µM
- TGI [5]: 20 µM
- TGI [6]: 83.8 µM
- TGI [9]: 9.18 µM

SMILES: CCn1c2c(c3ccccc31)C(c1ccccc1)CC1C(=O)N(c3ccccc3)C(=O)C21 (stereo not drawn)
- TGI [1]: > 100 µM
- TGI [2]: > 100 µM
- TGI [3]: > 100 µM
- TGI [4]: > 100 µM
- TGI [5]: > 100 µM
- TGI [6]: 59.6 µM
- TGI [7]: > 100 µM
- TGI [10]: 37.2 µM

SMILES: COc1cc(/C=C/c2cc(/C=C/c3ccc(O)c(OC)c3)n(C(=O)Nc3ccc(Cl)cc3)n2)ccc1O
- GI50 [12]: 0.885 µM
- TGI [12]: 3.51 µM
- GI50 [1]: 0.298 µM
- TGI [1]: > 21.4 µM
- GI50 [13]: 0.382 µM
- TGI [13]: 1.67 µM
- GI50 [6]: 0.444 µM
- TGI [6]: 2.25 µM
- GI50 [8]: 0.106 µM
- GI50 [9]: 0.525 µM
- TGI [9]: 5.33 µM

SMILES: Cc1cnc(Nc2ccc(N3CCN(C)CC3)cc2)nc1Nc1ccc(Cl)c(NS(=O)(=O)C(C)(C)C)c1
- GI50 [12]: 0.872 µM
- TGI [12]: 2.59 µM
- GI50 [1]: 0.18 µM
- TGI [1]: 6.83 µM
- GI50 [13]: 0.303 µM
- TGI [13]: 11 µM
- GI50 [6]: < 0.0256 µM
- TGI [6]: 0.828 µM
- GI50 [8]: 0.092 µM
- TGI [8]: 6.26 µM
- GI50 [9]: 0.84 µM
- TGI [9]: 11.7 µM

SMILES: OC12c3ccccc3C3CCC4(OCCO4)C3C1c1ccccc12 (stereo not drawn)
- TGI [1]: > 100 µM
- TGI [2]: > 100 µM
- TGI [3]: > 100 µM
- TGI [11]: > 100 µM
- TGI [4]: > 100 µM
- TGI [5]: > 100 µM
- TGI [6]: > 100 µM
- TGI [7]: > 100 µM
- TGI [9]: > 100 µM
